Results published in patent US12193328B2, “Aromatic compounds and use thereof for formation of molecular layers and fabrication of switching elements for memristive devices” (MERCK PATENT GMBH, priority 2019, dated 2025).
Read-outs that look alike come from different tables or passages of the source.

Assay: Comparative solubility test in various solvents
Assay type: physicochemical
Details: 1 mM concentration, 23° C., stirred 18 h, visually inspected; for solubility at 18 h: organic solvent or mixture, thermodynamic from solid
Method: Comparative Solubility Test
The comparative solubilities of the following Reference Compound 1 (reference from DE102017005884):
[drawing 83] and of Synthesis Example 1 in various solvents at 1 mM concentration at 23° C. are experimentally determined. The sample is stirred for 18 h at 23° C. and then visually inspected. In the table below the expression “soluble” means that after 18 h a clear solution is obtained. “Not soluble” means that remaining solid is observed.

[1] = 1-Methoxy-2-propanol acetate, read-out: Solubility in 1-methoxy-2-propanol acetate
[2] = Cyclohexanone, read-out: Solubility in cyclohexanone

Solubility in chloroform | Solubility in THF | Solubility in toluene (Toluene) | solubility at 18 h [1] | solubility at 18 h [2] | solubility at 18 h (Ethyl acetate, read-out: Solubility in ethyl acetate) | Solubility in 1-methoxy-2-propanol acetate (1-Methoxy-2-propanol acetate) | Solubility in cyclohexanone (Cyclohexanone) | Solubility in ethyl acetate (Ethyl acetate) | solubility at 18 h (Toluene, read-out: Solubility in toluene) | Compound
Soluble | Soluble | Soluble | < 1000 µM | < 1000 µM | < 1000 µM | – | – | – | – | CCCCCC1CCC(c2ccc(OCCCCCCCCCCCP(=O)(O)O)c(F)c2F)CC1 (centres unmarked) [Reference 1, 11-[2,3-difluoro-4-(4-pentylcyclohexyl)phenoxy]undecylphosphonic acid, reference compound]
Soluble | Soluble | – | > 1000 µM | > 1000 µM | – | Soluble | Soluble | Soluble | < 1000 µM | CCCCC[C@H]1CC[C@H](c2ccc(Oc3c(C)cc(P(=O)(O)O)cc3C)c(F)c2F)CC1 [Synthesis Example 1, [4-[2,3-difluoro-4-(4-pentylcyclohexyl)phenoxy]-3,5-dimethyl-phenyl]phosphonic acid]
